Results: PubChem BioAssay (NCI)
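These data come from cells grown in 96-well plates and exposed to compound for 48 hours at five concentrations. TGI: total growth inhibition.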

What was measured:
Assay in all cases: NCI-60 cell line screen, 48 h
COLO 205 colon = tested on: COLO 205 colon
RXF-631 renal = tested on: RXF-631 renal
HCT-116 colon = tested on: HCT-116 colon
MOLT-4 leukemia = tested on: MOLT-4 leukemia
SR leukemia = tested on: SR leukemia
SNB-78 CNS = tested on: SNB-78 CNS
SK-OV-3 ovarian = tested on: SK-OV-3 ovarian
NCI-H460 lung = tested on: NCI-H460 lung
HOP-92 NSCLC = tested on: HOP-92 NSCLC
K-562 leukemia = tested on: K-562 leukemia
MALME-3M melanoma = tested on: MALME-3M melanoma
HL-60(TB) leukemia = tested on: HL-60(TB) leukemia
HT29 colon = tested on: HT29 colon
EKVX NSCLC = tested on: EKVX NSCLC
SN12C renal = tested on: SN12C renal
DMS 114 small cell lung = tested on: DMS 114 small cell lung
NCI-H226 lung = tested on: NCI-H226 lung
DLD-1 colon = tested on: DLD-1 colon
IGROV1 ovarian = tested on: IGROV1 ovarian
SW-620 colon = tested on: SW-620 colon
CAKI-1 renal = tested on: CAKI-1 renal
OVCAR-3 ovarian = tested on: OVCAR-3 ovarian
LOX IMVI melanoma = tested on: LOX IMVI melanoma
XF 498 CNS = tested on: XF 498 CNS
UACC-257 melanoma = tested on: UACC-257 melanoma
OVCAR-8 ovarian = tested on: OVCAR-8 ovarian
LXFL 529 NSCLC = tested on: LXFL 529 NSCLC
SF-268 CNS = tested on: SF-268 CNS
SF-539 CNS = tested on: SF-539 CNS
NCI-H23 lung = tested on: NCI-H23 lung
A549 NSCLC = tested on: A549 NSCLC
M14 melanoma = tested on: M14 melanoma
OVCAR-4 ovarian = tested on: OVCAR-4 ovarian
ACHN renal = tested on: ACHN renal
SF-295 CNS = tested on: SF-295 CNS
UACC-62 melanoma = tested on: UACC-62 melanoma
CCRF-CEM leukemia = tested on: CCRF-CEM leukemia
NCI-H522 lung = tested on: NCI-H522 lung
SNB-75 CNS = tested on: SNB-75 CNS
SNB-19 CNS = tested on: SNB-19 CNS
A498 renal = tested on: A498 renal
KM12 colon = tested on: KM12 colon
TK-10 renal = tested on: TK-10 renal
RXF 393 renal = tested on: RXF 393 renal
SK-MEL-5 melanoma = tested on: SK-MEL-5 melanoma
HOP-62 NSCLC = tested on: HOP-62 NSCLC
U251 CNS = tested on: U251 CNS
M19-MEL melanoma = tested on: M19-MEL melanoma
KM20L2 colon = tested on: KM20L2 colon
UO-31 renal = tested on: UO-31 renal
786-0 renal = tested on: 786-0 renal
SK-MEL-28 melanoma = tested on: SK-MEL-28 melanoma
HCT-15 colon = tested on: HCT-15 colon
HCC-2998 colon = tested on: HCC-2998 colon
OVCAR-5 ovarian = tested on: OVCAR-5 ovarian
SK-MEL-2 melanoma = tested on: SK-MEL-2 melanoma
RPMI-8226 leukemia = tested on: RPMI-8226 leukemia

Question: What does the source list for `CC1CC[C@@]23CCC4(C)[C@@](C=CC5[C@@]6(C)CCC(=O)C(C)(C)C6CC[C@]54C)(OC2=O)[C@@H]3[C@H]1C` (some centres not stated)?
Answer: TGI (COLO 205 colon): 27.7 µM; TGI (RXF-631 renal): 71.4 µM; TGI (HCT-116 colon): 22.7 µM; TGI (MOLT-4 leukemia): 27.8 µM; TGI (SR leukemia): 26.5 µM; TGI (SNB-78 CNS): 67.9 µM; TGI (SK-OV-3 ovarian): 80 µM; TGI (NCI-H460 lung): 58 µM; TGI (HOP-92 NSCLC): 41.7 µM; TGI (K-562 leukemia): > 100 µM; TGI (MALME-3M melanoma): 52 µM; TGI (HL-60(TB) leukemia): 13.3 µM; TGI (HT29 colon): 51.3 µM; TGI (EKVX NSCLC): 82.9 µM; TGI (SN12C renal): > 100 µM; TGI (DMS 114 small cell lung): 34.1 µM; TGI (NCI-H226 lung): 58.9 µM; TGI (DLD-1 colon): > 100 µM; TGI (IGROV1 ovarian): > 100 µM; TGI (SW-620 colon): > 100 µM; TGI (CAKI-1 renal): > 100 µM; TGI (OVCAR-3 ovarian): 39.3 µM; TGI (LOX IMVI melanoma): 36.3 µM; TGI (XF 498 CNS): 34.2 µM; TGI (UACC-257 melanoma): 52.8 µM; TGI (OVCAR-8 ovarian): > 100 µM; TGI (LXFL 529 NSCLC): 74.7 µM; TGI (SF-268 CNS): > 100 µM; TGI (SF-539 CNS): 86.3 µM; TGI (NCI-H23 lung): 42 µM; TGI (A549 NSCLC): 81 µM; TGI (M14 melanoma): > 100 µM; TGI (OVCAR-4 ovarian): > 100 µM; TGI (ACHN renal): 78.2 µM; TGI (SF-295 CNS): 73.2 µM; TGI (UACC-62 melanoma): > 100 µM; TGI (CCRF-CEM leukemia): 53.4 µM; TGI (NCI-H522 lung): 37.9 µM; TGI (SNB-75 CNS): 55 µM; TGI (SNB-19 CNS): > 100 µM; TGI (A498 renal): 62.5 µM; TGI (KM12 colon): 36.8 µM; TGI (TK-10 renal): 56.5 µM; TGI (RXF 393 renal): 41.2 µM; TGI (SK-MEL-5 melanoma): 28.5 µM; TGI (HOP-62 NSCLC): 42.6 µM; TGI (U251 CNS): 52.9 µM; TGI (M19-MEL melanoma): 68.5 µM; TGI (KM20L2 colon): > 100 µM; TGI (UO-31 renal): 40.2 µM; TGI (786-0 renal): > 100 µM; TGI (SK-MEL-28 melanoma): > 100 µM

Question: What does the source list for `O=C(Cc1cc[n+]([O-])cc1)C(=O)Nc1cc(Cl)c(Cl)cc1Cl`?
Answer: TGI (COLO 205 colon): > 100 µM; TGI (RXF-631 renal): > 100 µM; TGI (HCT-116 colon): > 100 µM; TGI (MOLT-4 leukemia): > 100 µM; TGI (SNB-78 CNS): > 100 µM; TGI (SK-OV-3 ovarian): > 100 µM; TGI (NCI-H460 lung): > 100 µM; TGI (HOP-92 NSCLC): > 100 µM; TGI (K-562 leukemia): > 100 µM; TGI (MALME-3M melanoma): > 100 µM; TGI (HL-60(TB) leukemia): > 100 µM; TGI (EKVX NSCLC): > 100 µM; TGI (DMS 114 small cell lung): > 100 µM; TGI (HCT-15 colon): > 100 µM; TGI (DLD-1 colon): > 100 µM; TGI (HCC-2998 colon): > 100 µM; TGI (IGROV1 ovarian): > 100 µM; TGI (SW-620 colon): > 100 µM; TGI (OVCAR-5 ovarian): > 100 µM; TGI (OVCAR-3 ovarian): > 100 µM; TGI (UACC-257 melanoma): > 100 µM; TGI (OVCAR-8 ovarian): > 100 µM; TGI (LXFL 529 NSCLC): > 100 µM; TGI (SK-MEL-2 melanoma): > 100 µM; TGI (SF-268 CNS): > 100 µM; TGI (SF-539 CNS): > 100 µM; TGI (NCI-H23 lung): > 100 µM; TGI (A549 NSCLC): > 100 µM; TGI (M14 melanoma): > 100 µM; TGI (OVCAR-4 ovarian): > 100 µM; TGI (ACHN renal): > 100 µM; TGI (SF-295 CNS): > 100 µM; TGI (RPMI-8226 leukemia): > 100 µM; TGI (UACC-62 melanoma): > 100 µM; TGI (CCRF-CEM leukemia): > 100 µM; TGI (NCI-H522 lung): > 100 µM; TGI (SNB-75 CNS): > 100 µM; TGI (SNB-19 CNS): > 100 µM; TGI (A498 renal): > 100 µM; TGI (KM12 colon): > 100 µM; TGI (TK-10 renal): > 100 µM; TGI (RXF 393 renal): > 100 µM; TGI (SK-MEL-5 melanoma): > 100 µM; TGI (HOP-62 NSCLC): > 100 µM; TGI (U251 CNS): > 100 µM; TGI (M19-MEL melanoma): > 100 µM; TGI (KM20L2 colon): > 100 µM; TGI (UO-31 renal): > 100 µM; TGI (786-0 renal): > 100 µM; TGI (SK-MEL-28 melanoma): > 100 µM
